The record followed here is article PMC7587356, “High-Throughput Screening for Inhibitors of the SARS-CoV-2 Protease Using a FRET-Biosensor” (Molecules, 2020).

This experiment deals with SARS-CoV-2 3CLpro (Severe acute respiratory syndrome coronavirus 2, UniProt P0DTD1). Kind of experiment: biochemical. Further details: Replicate_1 / Replicate_2 / mean / mean (LOPAC_screen_w_protease): unit not given here. The format is biochemical.
Where [1] appears, read: 4 h, sheet LOPAC_screen_w_protease, primary screen with protease, compound at 5 µM, mean of two replicates, read-out: mean.
Where [2] appears, read: 4 h, sheet LOPAC_screen_w_protease, primary screen with protease, compound at 5 µM, replicate 1, read-out: Replicate_1.
Where [3] appears, read: 4 h, sheet LOPAC_screen_w_protease, primary screen with protease, compound at 5 µM, replicate 2, read-out: Replicate_2.
[4] abbreviates: sheet LOPAC_screen_w_protease, LOPAC1280 primary screen with protease, 5 µM compound, mean of the two replicates.
The mark [5] stands for this setting: sheet LOPAC_screen_w_protease, LOPAC1280 primary screen with protease, 5 µM compound, replicate 1.
Where [6] appears, read: sheet LOPAC_screen_w_protease, LOPAC1280 primary screen with protease, 5 µM compound, replicate 2.
Where [7] appears, read: sheet LOPAC_screen_w_protease, LOPAC1280 at 5 µM, mean of two replicates.
Where [8] appears, read: sheet LOPAC_screen_w_protease, LOPAC1280 at 5 µM, replicate 1.
Setting [9] is: sheet LOPAC_screen_w_protease, LOPAC1280 at 5 µM, replicate 2.
Where [10] appears, read: sheet LOPAC_screen_w_protease, primary screen with protease, mean of two replicates.
Where [11] appears, read: sheet LOPAC_screen_w_protease, primary screen with protease, replicate 1.
Setting [12] is: sheet LOPAC_screen_w_protease, primary screen with protease, replicate 2.

Structures can show the parent of a compound that is named as a salt. Where two headings read alike, the source gives them in different places.

With `COc1ccc(C(=O)NCc2cccnc2)cc1C(=O)NCc1cccnc1` [Picotamide], the inhibition at 5 µM is 0.551% (4 h, sheet LOPAC_screen_w_protease, LOPAC1280 primary screen at 5 µM, with protease, mean of the two replicates, read-out: mean); 1.7% (4 h, sheet LOPAC_screen_w_protease, LOPAC1280 primary screen at 5 µM, with protease, replicate 1, read-out: Replicate_1); -0.597% (4 h, sheet LOPAC_screen_w_protease, LOPAC1280 primary screen at 5 µM, with protease, replicate 2, read-out: Replicate_2).
`O=C(O)CCCCCCC1C(=O)NC(=O)N1CCC(O)C1CCCCC1` (stereo not shown) [BW 245C]: the “Replicate_1 (LOPAC_screen_w_protease)” value turned out to be 2.361, the “Replicate_2 (LOPAC_screen_w_protease)” value is reported as 0.3585 and the “mean (LOPAC_screen_w_protease)” value stood at 1.3595.
With `CNC(=O)OCC[N+](C)(C)C` [Methylcarbamylcholine chloride], the inhibition at 5 µM is, setting by setting: under setting [1], 3%; under setting [2], 4.73%; under setting [3], 1.26%.
Turning to Oligomycin A, the mean under setting [4] turned out to be 6.143. Under setting [5], this compound had a Replicate_1 of 3.7549. Besides, under setting [6], the Replicate_2 is given as 8.531.
With `CCCN(CCC)C(=O)Cc1c(-c2ccc(Cl)cc2)nc2c(Cl)cc(Cl)cn12` [CB34], the Replicate_1 is recorded as 2.062, the Replicate_2 worked out at 2.367 and the mean turned out to be 2.2145.
`NCC(CP(=O)(O)O)c1ccc(Cl)cc1` (stereo not shown) [Phaclofen]: the mean under setting [7] turned out to be 1.154. The compound also showed a Replicate_1 under setting [8] of -0.2982. This compound also displayed a Replicate_2 under setting [9] of 2.606.
`CCCN1CCC[C@@H]2Cc3nc(N)ncc3C[C@H]21.Cl.Cl` [Quinelorane dihydrochloride]: the mean under setting [4] stood at 6.182. The same compound yielded a Replicate_1 under setting [5] of 6.527. Under setting [6], this compound came in with a Replicate_2 of 5.838.
For the compound `O=c1c(O)c(-c2ccc(O)c(O)c2)oc2cc(O)cc(O)c12` [quercetin, reference compound], the inhibition at 5 µM (read-out: inhibition of 3CLpro in the primary screen) came to 1.9%.
`CC1CN(S(=O)(=O)c2cccc3cnccc23)CCN1.Cl.Cl` (stereo not shown) showed a mean under setting [10] of 2.412. For the same compound, the Replicate_1 under setting [11] was determined as 3.532. This compound showed a Replicate_2 under setting [12] of 1.292.
Take `O=c1[nH]c(=O)n([C@H]2C[C@H](O)[C@@H](CO)O2)cc1/C=C/Br` [(E)-5-(2-Bromovinyl)-2'-deoxyuridine]: the mean (sheet LOPAC_screen_w_protease, primary screen of LOPAC1280 at 5 µM with protease, mean of the two replicates) was 3.159. The Replicate_1 (sheet LOPAC_screen_w_protease, primary screen of LOPAC1280 at 5 µM with protease, replicate 1) turned out to be 2.158. Moreover, for the setting “sheet LOPAC_screen_w_protease, primary screen of LOPAC1280 at 5 µM with protease, replicate 2”, the Replicate_2 was determined as 4.161.
Turning to `O=[N+]([O-])c1cc(O)c(O)c([N+](=O)[O-])c1` [3,5-Dinitrocatechol], the mean under setting [10] was 2.373. The compound further had a Replicate_1 under setting [11] of 3.489. The compound also displayed a Replicate_2 under setting [12] of 1.257.
Regarding `CSC(N)=NCCC[C@H](N)C(=O)O` [S-Methyl-L-thiocitrulline acetate], the inhibition at 5 µM by setting is: under setting [1], 2.62%; under setting [2], 2.21%; under setting [3], 3.04%.
With `C=CCN1C[C@H](C)N([C@H](c2ccc(C(=O)N(CC)CC)cc2)c2cccc(OC)c2)C[C@H]1C` [SNC80], the Replicate_1 is -0.408, the Replicate_2 is given as 1.648 and the mean came out at 0.6198.
For the compound `CCOC(=O)c1ncn2c1[C@@H]1CCCN1C(=O)c1cc(OC)ccc1-2` [L-655,708], the mean under setting [7] is 1.109. Further, the Replicate_1 under setting [8] came out at 1.0635. Under setting [9], this compound registered a Replicate_2 of 1.155.
Take `N#Cc1cc2nc([O-])c([O-])nc2cc1[N+](=O)[O-].[Na+].[Na+]` [CNQX disodium]: the mean (sheet LOPAC_screen_w_protease, LOPAC1280 primary screen at 5 µM, with protease, mean of the two replicates) is 0.7558. This compound also showed a Replicate_1 (sheet LOPAC_screen_w_protease, LOPAC1280 primary screen at 5 µM, with protease, replicate 1) of 2.8399. The same compound had a Replicate_2 (sheet LOPAC_screen_w_protease, LOPAC1280 primary screen at 5 µM, with protease, replicate 2) of -1.328.
In the case of `CC(C)N(CCC(C(N)=O)(c1ccccc1)c1ccccn1)C(C)C` (stereo not shown) [Disopyramide phosphate], the inhibition at 5 µM is, setting by setting: under setting [1], 2.74%; under setting [2], 4.07%; under setting [3], 1.41%.
Regarding `Oc1ccc2c3c1O[C@H]1[C@@H](O)CC[C@@]4(O)[C@@H](C2)N(CC2CCC2)CC[C@]314` [Nalbuphine hydrochloride], the inhibition at 5 µM is, setting by setting: (4 h, read-out: Replicate_1) 4.1%; (4 h, read-out: Replicate_2) 4.27%; (4 h, read-out: mean) 4.19%.
